Source: ChEMBL document CHEMBL1127989, “Structure-activity studies of synthetic FKBP ligands as peptidyl-prolyl isomerase inhibitors” (Bioorg Med Chem Lett, 1994)

Experiment: Apparent inhibition constant against peptidyl prolyl isomerase; range=0.3-0.6
Conditions: read-out: Ki app

| Ki [nM] | Compound |
| --- | --- |
| 300 | CCC(C)(C)C(=O)C(=O)N1CCCC[C@H]1C(=O)OC(CCc1ccccc1)c1ccccc1 (stereo partly specified) |

Experiment: Apparent inhibition constant against peptidyl prolyl isomerase; range=0.004-0.010
Conditions: read-out: Ki app

| Ki [nM] | Compound |
| --- | --- |
| 4 | CCC(C)(C)C(=O)C(=O)N1CCCC[C@@H]1C(=O)OC(CCc1ccccc1)c1ccc2ccccc2c1 (stereo partly specified) |

Experiment: Apparent inhibition constant against peptidyl prolyl isomerase (Ki app)
Conditions: not given

| Ki [nM] | Compound |
| --- | --- |
| 60000 | O=C(C(=O)N1CCCC[C@@H]1C(=O)NC(CO)Cc1ccccc1)C1CCCCC1 (stereo partly specified) |
| 3000 | O=C(C(=O)N1CCCCC1C(=O)NCCc1ccccc1)C1CCCCC1 (stereo unspecified) |
| 1900 | CCOC(=O)C(CCc1ccccc1)NC(=O)[C@H]1CCCCN1C(=O)C(=O)C1CCCCC1 (stereo partly specified) |
| 20000 | O=C(C(=O)N1CCCCC1C(=O)N(CCCc1ccccc1)Cc1ccccc1)C1CCCCC1 (stereo unspecified) |

Same assay, conditions: read-out: Ki app

| Ki [nM] | Compound |
| --- | --- |
| 7000 | CCOC(=O)C1CCCCN1C(=O)C(=O)C1(O)CCCCO1 (stereo unspecified) |

Experiment: Inhibition constant against peptidyl prolyl isomerase
Conditions: read-out: Ki app

| Compound | Ki [nM] |
| --- | --- |
| CCOC(=O)[C@H]1CCCN1C(=O)C(=O)C1(OC)CCCCC1 | 600000 |
| CCOC(=O)[C@H]1CCCCN1C(=O)C(=O)C1(OC)CCCCC1 | 22000 |
| COc1cc(CC[C@@H](OC(=O)[C@@H]2CCCCN2C(=O)CC(C)(C)C)c2ccccc2)cc(OC)c1OC | 200 |
| CCOC(=O)C1CCCCN1C(=O)C(=O)C1(OC)CCCCC1 (stereo unspecified) | 1000 |
| CCOC(=O)C1CCCCN1NC(=O)C1CCCCC1 (stereo unspecified) | 730000 |
| O=CC1CCCCN1C(=O)C(=O)C1CCCCC1 (stereo in doubt; 44) | 200 |
| CCOC(=O)C1CCCCN1C(=O)C(=O)C1(O)CCCCC1 (stereo unspecified) | 1600 |
| O=C(C(=O)N1CCCC[C@H]1C(=O)OC(CCC1CCCCC1)c1ccccc1)C1CCCCC1 (stereo partly specified) | 16000 |
| CCOC(=O)CN(C)C(=O)C(=O)C1(OC)CCCCC1 | 23000 |
| O=CC1CCCCN1C(=O)C(=O)C1CCCCC1 (stereo in doubt; 59) | 20 |
| CCOC(=O)C1CCCN(C(=O)C(=O)C2(OC)CCCCO2)C1 (stereo unspecified) | 180000 |
| O=C(C(=O)N1CCCCC1C(=O)OCc1ccccc1)C1CCCCC1 (stereo unspecified) | 400 |
| COC1(C(=O)C(=O)N2CCCCC2)CCCCO1 (stereo unspecified) | 160000 |
| C/C(=C\c1ccccc1)COC(=O)C1CCCCN1C(=O)C(=O)C1CCCCC1 (stereo unspecified) | 300 |
| CC(C)(CCC1CCCCC1)OC(=O)C1CCCCN1C(=O)C(=O)C1CCCCC1 (stereo unspecified) | 200 |
| CCOC(=O)C1CCCCN1C(=O)C(=O)C1(OC)CCCCO1 (stereo unspecified) | 4000 |
| O=C(O[C@H](CCc1ccccc1)c1ccccc1)[C@@H]1CCCCN1S(=O)(=O)Cc1ccccc1 | 160 |
| CCOC(=O)C1CCCCN1C(=O)C(=O)C1CCCCC1 (stereo unspecified) | 2000 |
| C=CCN(CC(=O)OCC)C(=O)C(=O)C1(OC)CCCCC1 | 260000 |
| CCOC(=O)C1CCCCN1C(=O)C(=O)N1CCCCC1 (stereo unspecified) | 33000 |
| CCOC(=O)[C@@H]1CCCN1C(=O)C(=O)C1(OC)CCCCC1 | 8000 |
| O=C(C(=O)N1CCCCC1C(=O)NCCCc1ccccc1)C1CCCCC1 (stereo unspecified) | 1000 |
| CO[C@H]1C[C@@H]2CC[C@@H](C)[C@@](O)(O2)C(=O)C(=O)N2CCCC[C@H]2C(=O)O[C@H]([C@H](C)C[C@@H]2CC[C@@H](O)[C@H](OC)C2)CC(=O)[C@H](C)/C=C(\C)[C@@H](O)[C@@H](OC)C(=O)[C@H](C)C[C@H](C)/C=C/C=C/C=C/1C [SIROLIMUS] | 1000 |
| CCOC(=O)C1CCCCN1C(=S)C(=O)CC(C)C (stereo unspecified) | 4300 |
| O=CC1CCCCN1C(=O)C(=O)C1CCCCC1 (stereo in doubt; 35) | 250 |

Next, values leading:

| Ki [nM] | Compound |
| --- | --- |
| 660 | CCOC(=O)C1CCCCN1C(=O)C(=O)C(C)(C)CC (stereo unspecified) |
| 9 | CCC(C)(C)C(=O)C(=O)N1CCCC[C@@H]1C(=O)OC(CCc1ccc2c(c1)OCO2)c1ccccc1 (stereo partly specified) |
| 250 | CCC(C)(C)C(=O)C(=O)N1CCCCC1C(=O)OCc1cccc2ccccc12 (stereo unspecified) |
| 100 | CCC(C)(C)C(=O)C(=O)N1CCCCC1C(=O)OCCCCc1ccccc1 (stereo unspecified) |
| 12 | CCC(C)(C)C(=O)C(=O)N1CCCCC1C(=O)OCCCc1cc(OC)c(OC)c(OC)c1 (stereo unspecified) |
| 60 | CCC(C)(C)C(=O)C(=O)N1CCCCC1C(=O)OCCCc1ccc(OCc2ccccc2)cc1 (stereo unspecified) |
| 8000 | CCOC(=O)C1CCCCN1C(=O)C(=O)c1ccccc1 (stereo unspecified) |
| 70 | CCC(C)(C)C(=O)C(=O)N1CCCCC1C(=O)OCCCc1ccc(OC)cc1 (stereo unspecified) |
| 35 | CCC(C)(C)C(=O)C(=O)N1CCCCC1C(=O)OC/C=C/c1ccc(OC)c(OC)c1 (stereo unspecified) |
| 410 | CCC(C)(C)C(=O)C(=O)N1CCCCC1C(=O)OCC(C)(C)C (stereo unspecified) |
| 9 | CCC(C)(C)C(=O)C(=O)N1CCCC[C@@H]1C(=O)OC(CCc1cc(OC)c(OC)c(OC)c1)c1ccccc1 (stereo partly specified) |
| 230 | COc1cc(CCCOC(=O)[C@@H]2CCCCN2S(=O)(=O)Cc2ccccc2)cc(OC)c1OC |
| 9000 | CCOC(=O)C1CCCCN1C(=O)C(=O)Cc1ccccc1 (stereo unspecified) |
| 2300 | CCC(C)(C)C(O)C(=O)N1CCCC[C@H]1C(=O)OCCCc1ccccc1 (stereo partly specified) |
| 110 | CCC(C)(C)C(=O)C(=O)N1CCCCC1C(=O)OCCCc1ccccc1 (stereo unspecified) |
| 95 | CCC(C)(C)C(=O)C(=O)N1CCCCC1C(=O)OCCCc1ccc(O)cc1 (stereo unspecified) |
| 60 | CCC(C)(C)C(=O)C(=O)N1CCCCC1C(=O)OCCCc1ccccc1OC (stereo unspecified) |
| 50000 | CCOC(=O)C1CCCCN1C(=O)C(=O)CC (stereo unspecified) |
| 1000 | CCOC(=O)C1CCCCN1C(=O)C(=O)C(C)(C)COC(C)=O (stereo unspecified) |

| Ki [nM] | Compound |
| --- | --- |
| 340 | CCC(C)(C)C(=O)C(=O)N1CCCCC1C(=O)OCCc1ccccc1 (stereo unspecified) |
| 250 | C=CC(C)(C)C(CCc1ccccc1)OC(=O)[C@H]1CCCCN1C(=O)C(=O)C(C)(C)CC (stereo partly specified) |
| 7 | CCC(C)(C)C(=O)C(=O)N1CCCC[C@@H]1C(=O)OC(CCc1ccccc1)C1CCCCC1 (stereo partly specified) |
| 20000 | CCOC(=O)C1CCCCN1C(=O)C(=O)C1=CCCCO1 (stereo unspecified) |
| 2000 | CCOC(=O)C1CCCCN1C(=O)C(=O)C(C)(C)C (stereo unspecified) |
| 330 | CCC(C)(C)C(=O)C(=O)N1CCCCC1C(=O)OCCc1c[nH]c2ccccc12 (stereo unspecified) |
| 6000 | CCOC(=O)C1CCCCN1C(=O)C(=O)C(C)C (stereo unspecified) |
| 55 | CCC(C)(C)C(=O)C(=O)N1CCCCC1C(=O)OC(CCc1ccccc1)Cc1ccccc1 (stereo unspecified) |
| 20 | CCC(C)(C)C(=O)C(=O)N1CCCCC1C(=O)OCCCc1ccc(OC)c(OC)c1 (stereo unspecified) |
| 2000 | CCOC(=O)C1CCCCN1C(=O)C(=O)CC(C)C (stereo unspecified) |
| 200 | CCC(C)(C)C(=O)C(=O)N1CCCCC1C(=O)OCc1ccc2ccccc2c1 (stereo unspecified) |
| 300 | CCC(C)(C)C(=O)C(=O)N1CCCC[C@H]1C(=O)OC(CCc1ccccc1)C1CCCCC1 (stereo partly specified) |
| 170000 | CCOC(=O)C1CCCCN1C(=O)C(C)=O (stereo unspecified) |
| 23 | CCC(C)(C)C(=O)C(=O)N1CCCCC1C(=O)OCCCc1c[nH]c2ccccc12 (stereo unspecified) |
| 30000 | CCCC(=O)C1CCCCN1C(=O)C(=O)C(C)(C)CC (stereo unspecified) |
| 186 | CCC(C)(C)C(=O)C(=O)N1CCCCC1C(=O)OCCCC1CCCCC1 (stereo unspecified) |
| 10 | CCC(C)(C)C(=O)C(=O)N1CCCC[C@@H]1C(=O)OC(CCC1CCCCC1)c1ccccc1 (stereo partly specified) |
| 27 | CCC(C)(C)C(=O)C(=O)N1CCCCC1C(=O)OCCC(c1ccccc1)c1ccccc1 (stereo unspecified) |
| 165 | CCC(C)(C)C(=O)C(=O)N1CCCCC1C(=O)OCCCc1cccnc1 (stereo unspecified) |

Experiment: Apparent inhibition constant against peptidyl prolyl isomerase; range = 0.002-0.006
Conditions: read-out: Ki app

| Ki [nM] | Compound |
| --- | --- |
| 2 | CCC(C)(C)C(=O)C(=O)N1CCCC[C@@H]1C(=O)OC(CCc1ccc(OC)c(OC)c1)c1ccccc1 (stereo partly specified) |
